Measurements taken from article PMC12737022, “Evaluations of Sex Differences in Dosimetry in Rats Following Perfluorohexanesulfonamide (PFHxSA) Oral Exposure” (Toxics, 2025).
Values joined by “and” are separate entries in the source; they are usually repeats but may differ in a detail not shown here. Equal entries are not always repeated. Where two headings read alike, the source gives them in different places.

Key:
[1] = Plasma dosimetry of PFHxSA and PFHxS by targeted LC/MS/MS; assay type: in vivo, rat; settings: for concentration at 24 h: Sprague Dawley (Crl:CD(SD)), rat, oral
From the text: The plasma and liver samples for this investigation were provided by Mutlu et al.. The study design, including detailed descriptions of animal handling, procedures for dosing, clinical observations, termination, and collection of tissues, is reported elsewhere and is consistent with the ARRIVE guidelines. Briefly, male and female Sprague Dawley (SD) rats (Crl:CD(SD)) (n = 48/sex, 96 total) were purchased from Charles River Laboratory (Raleigh, NC, USA) and allowed to acclimate for ≥5 days before initial dosing. Rats were 8–10 weeks old at the time of exposure. PFHxSA dosing solutions in corn oil were prepared on Day 0 and used over the course of the study. Rats of both sexes (n = 5/sex, dose, and time point, plus eight vehicle controls per sex) were dosed by oral gavage (5 mL/kg body weight) once daily for five days. […] The formulation concentrations decreased from 100 mg/kg/day at half-log10 intervals until the lowest dose level, which was a full log10 interval below the next higher dose, giving eight dose levels (0.01 to 100 mg/kg/day or 0.025 µmol/kg/day to 250 µmol/kg/day) in addition to vehicle controls. Doses were administered in randomized order within ± 1 h on each day of dosing. […] Rats were euthanized 24 h after the last dose. Blood was collected via cardiac puncture with tripotassium ethylene diamine tetraacetic acid (K3EDTA) as an anti-coagulant and centrifuged to collect cell-free plasma. Liver was collected and flash-frozen in liquid nitrogen. Liver, plasma, and dosing formulation samples were frozen at the USEPA Center for Computational Toxicology and Exposure (CCTE), Durham, NC, USA. Tissue samples (plasma and liver, n = 96 each) were stored at ≤−70 °C prior to extraction; dosing formulation samples (n = 9) were stored at −20 °C.
Detailed information on solvents and standards used for targeted LC/MS/MS of PFHxSA and PFHxS can be found in SI Text S1 and SI Table S1. Plasma and liver preparations were modified from Conley et al.. Briefly, aliquots of plasma (25 µL) and liver (~10 mg) were spiked with PFOSA as an internal standard, as no isotope-labeled PFHxSA was available. Sample batches included up to 96 samples along with an MB, CCV, and LCS for QC. Commercial plasma (mixed-sex SD rat plasma) and liver (mixed-sex SD rat) were obtained from BioIVT (Westbury, NY, USA). Cold acetonitrile (ACN) with 0.1 M formic acid was used to precipitate proteins. Liver and plasma samples were prepared similarly, except that the livers were homogenized after solvent addition. Plasma samples were vortexed to mix before being chilled at −20 °C, after which samples were centrifuged at 5 °C and 10,000× g. Liver samples were chilled at −80 °C, then homogenized using an Omni International (Kennesaw, GA, USA) Bead Ruptor 24. Liver homogenates were centrifuged at 26,000× g and 5 °C. Supernatants from the extraction of both matrices were removed and stored at −20 °C until analysis. Refer to SI Text S4 for additional experimental details and information on calibration and QC parameters for quantitation of PFHxSA.
Targeted LC/MS/MS of PFHxSA was performed on a Sciex 4000 QTRAP LC/MS/MS system operated in negative ESI mode with MRM scanning. A Restek (Bellefonte, PA, USA) Raptor Polar X (100 mm × 2 mm, 2.7 µm) column was used for liquid chromatography. Isocratic elution occurred over 10 min with a 30:70 ratio of mobile phase A (10 mM ammonium formate): mobile phase B (60:40 ACN: methanol). Both mobile phases included 0.05% formic acid. The LOQs for PFHxSA were 0.100 µM in plasma and 0.351 µM in liver. Additional details of the instrument method parameters for targeted analysis of PFHxSA are provided in SI Table S5. The MRM transitions for the PFHxSA method are provided in SI Table S6. […]

[2] = set-up: method as in Smeltz et al. [60]; settings: ref Smeltz et al. [60], cited from earlier work; for fup (fraction unbound in plasma): Human plasma; for fub (fraction unbound in blood): Human

NS(=O)(=O)C(F)(F)C(F)(F)C(F)(F)C(F)(F)C(F)(F)C(F)(F)F [PFHxSA, Perfluorohexanesulfonamide]
Female PFHxSA plasma concentrations versus male plasma ([1]; at 30 and 100 mg/kg/day): at least two-fold higher | Female plasma PFHxSA levels higher than males, on average ([1]; doses of 10 mg/kg/day and up): 2.9 fold | concentration at 24 h ([1]; female, plasma, 0.01 mg/kg/day, PFHxSA 0.01 mg/kg/day oral 5 days, female rats, mean ± SD, one sample estimated as half the LOQ, read-out: PFHxSA Female Plasma Conc.): 0.117 ± 0.043 µM | concentration at 24 h ([1]; female, plasma, 0.1 mg/kg/day, PFHxSA 0.1 mg/kg/day oral 5 days, female rats, mean ± SD, read-out: PFHxSA Female Plasma Conc.): 1.1 ± 0.11 µM | concentration at 24 h ([1]; female, plasma, 0.1 mg/kg/day, PFHxSA 0.1 mg/kg/day oral 5 days, female, individual rats, read-out: PFHxSA Female Plasma Conc.): 1.03 µM and 410 ng/mL | concentration at 24 h ([1]; female, plasma, 0.3 mg/kg/day, PFHxSA 0.3 mg/kg/day oral 5 days, female rats, mean ± SD, read-out: PFHxSA Female Plasma Conc.): 4.34 ± 1.6 µM | concentration at 24 h ([1]; female, plasma, 1 mg/kg/day, PFHxSA 1 mg/kg/day oral 5 days, female rats, mean ± SD, read-out: PFHxSA Female Plasma Conc.): 21.3 ± 9.1 µM | concentration at 24 h ([1]; female, plasma, 3 mg/kg/day, PFHxSA 3 mg/kg/day oral 5 days, female rats, mean ± SD, read-out: PFHxSA Female Plasma Conc.): 37.1 ± 13 µM | concentration at 24 h ([1]; female, plasma, 10 mg/kg/day, PFHxSA 10 mg/kg/day oral 5 days, female rats, mean ± SD, read-out: PFHxSA Female Plasma Conc.): 64.9 ± 17 µM | concentration at 24 h ([1]; female, plasma, 10 mg/kg/day, PFHxSA 10 mg/kg/day oral 5 days, female, individual rats, read-out: PFHxSA Female Plasma Conc.): 19600 ng/mL and 49 µM | concentration at 24 h ([1]; female, plasma, 30 mg/kg/day, PFHxSA 30 mg/kg/day oral 5 days, female rats, mean ± SD, read-out: PFHxSA Female Plasma Conc.): 179 ± 66 µM | concentration at 24 h ([1]; female, plasma, 100 mg/kg/day, PFHxSA 100 mg/kg/day oral 5 days, female, individual rats, read-out: PFHxSA Female Plasma Conc.): 111000 ng/mL and 278 µM | concentration at 24 h ([1]; male, plasma, 0.01 mg/kg/day, PFHxSA 0.01 mg/kg/day oral 5 days, male rats, single rat above the LOQ, read-out: PFHxSA Male Plasma Conc.): 0.102 µM | concentration at 24 h ([1]; male, plasma, 0.01 mg/kg/day, PFHxSA 0.01 mg/kg/day oral 5 days, male, individual rats, read-out: PFHxSA Male Plasma Conc.): 40.6 ng/mL and 102 nM | concentration at 24 h ([1]; male, plasma, 0.1 mg/kg/day, PFHxSA 0.1 mg/kg/day oral 5 days, male rats, mean ± SD, read-out: PFHxSA Male Plasma Conc.): 0.796 ± 0.28 µM | concentration at 24 h ([1]; male, plasma, 0.3 mg/kg/day, PFHxSA 0.3 mg/kg/day oral 5 days, male rats, mean ± SD, read-out: PFHxSA Male Plasma Conc.): 4.26 ± 0.48 µM | concentration at 24 h ([1]; male, plasma, 0.3 mg/kg/day, PFHxSA 0.3 mg/kg/day oral 5 days, male, individual rats, read-out: PFHxSA Male Plasma Conc.): 1640 ng/mL and 3.49 µM | concentration at 24 h ([1]; male, plasma, 1 mg/kg/day, PFHxSA 1 mg/kg/day oral 5 days, male rats, mean ± SD, read-out: PFHxSA Male Plasma Conc.): 11.4 ± 2.2 µM | concentration at 24 h ([1]; male, plasma, 1 mg/kg/day, PFHxSA 1 mg/kg/day oral 5 days, male, individual rats, read-out: PFHxSA Male Plasma Conc.): 4950 ng/mL and 12.4 µM | concentration at 24 h ([1]; male, plasma, 3 mg/kg/day, PFHxSA 3 mg/kg/day oral 5 days, male rats, mean ± SD, read-out: PFHxSA Male Plasma Conc.): 27.1 ± 8 µM | concentration at 24 h ([1]; male, plasma, 3 mg/kg/day, PFHxSA 3 mg/kg/day oral 5 days, male, individual rats, read-out: PFHxSA Male Plasma Conc.): 9190 ng/mL and 23 µM | concentration at 24 h ([1]; male, plasma, 10 mg/kg/day, PFHxSA 10 mg/kg/day oral 5 days, male rats, mean ± SD, read-out: PFHxSA Male Plasma Conc.): 56.8 ± 14 µM | concentration at 24 h ([1]; male, plasma, 10 mg/kg/day, PFHxSA 10 mg/kg/day oral 5 days, male, individual rats, read-out: PFHxSA Male Plasma Conc.): 17700 ng/mL and 44.3 µM | concentration at 24 h ([1]; male, plasma, 30 mg/kg/day, PFHxSA 30 mg/kg/day oral 5 days, male rats, mean ± SD, read-out: PFHxSA Male Plasma Conc.): 81.2 µM | concentration at 24 h ([1]; male, plasma, 30 mg/kg/day, PFHxSA 30 mg/kg/day oral 5 days, male, individual rats, read-out: PFHxSA Male Plasma Conc.): 27700 ng/mL and 69.4 µM | concentration at 24 h ([1]; male, plasma, 100 mg/kg/day, PFHxSA 100 mg/kg/day oral 5 days, male rats, average, read-out: PFHxSA Male Plasma Conc.): 62.1 µM | concentration at 24 h ([1]; male, plasma, 100 mg/kg/day, PFHxSA 100 mg/kg/day oral 5 days, male, individual rats, read-out: PFHxSA Male Plasma Conc.): 29500 ng/mL and 74 µM | fup (fraction unbound in plasma) [2]: 0.0004 ^1 | fub (fraction unbound in blood) [2]: 0.0007 ^1

O=S(=O)(O)C(F)(F)C(F)(F)C(F)(F)C(F)(F)C(F)(F)C(F)(F)F [PFHxS, perfluorohexane sulfonic acid]
Male PFHxS plasma concentrations higher than female at the same dose level ([1]; across the dose range): 4–10 times | Female level of PFHxS lower than males, on average ([1]; doses of 10 mg/kg/day and up, plasma): 5.3 fold | PFHxS lower than PFHxSA in female plasma, on average ([1]; female rats, after oral PFHxSA): 5.3 fold | PFHxS plasma concentrations higher than coincident PFHxSA plasma levels ([1]; male rats, PFHxSA 30 and 100 mg/kg/day): 1.6- to 6 fold | concentration at 24 h ([1]; male, plasma, PFHxSA 10 mg/kg/day oral 5 days, male rats, mean ± SD, read-out: PFHxS Male Plasma Conc.): 76.9 µM | concentration at 24 h ([1]; male, plasma, PFHxSA 30 mg/kg/day oral 5 days, male rats, mean ± SD, read-out: PFHxS Male Plasma Conc.): 136 µM | concentration at 24 h ([1]; male, plasma, PFHxSA 100 mg/kg/day oral 5 days, male rats, mean ± SD, read-out: PFHxS Male Plasma Conc.): 396 µM | Male PFHxS/PFHxSA concentration ratios higher than female ratios ([1]; plasma and liver): approximately 10 fold | fup (fraction unbound in plasma) [2]: 0.0009 ^1 | fub (fraction unbound in blood) [2]: 0.0016 ^1
